Values quoted from earlier work as cited in US4975422A, “Angiogenesis inhibitor” (Kureha Kagaku Kogyo Kabushiki Kaisha, priority 1988, dated 1990).

Details: oral; species not stated

For `COc1ccc2c(c1)c(CC(=O)O)c(C)n2C(=O)c1ccc(Cl)cc1` [indomethacin], the LD50 is given as 50 mg/kg.
